Test results: patent publication US20260265055A1, “Sulfine-Based Compounds for Generating Hydrogen Persulfide” (Brown University, priority 2023, published 2026)

Assays:
[1] = Kinetic study of the reaction between TTS and H2S (UV-Vis, 380 nm); type: physicochemical; design: unit not given here; conditions: TTS 50 μM, Na2S 5 mM, PBS pH 7.4, room temperature; average of 3 trials
Experimental: FIG. 1A depicts UV-Vis absorbance spectra changes of the reaction between TTS (100 μM) and H2S (200 μM) over 1 min intervals. FIG. 1B depicts representative time-dependent [TTS] changes based on UV-Vis absorption changes at 380 nm of the reaction between TTS (50 μM) and Na2S (5 mM). FIG. 1C depicts representative time-dependent −ln([TTS]/[TTS]0) changes based on UV-Vis absorption changes at 380 nm of the reaction between TTS (50 μM) and Na2S (5 mM). […] See Kolb, H. C. et al., Click chemistry: diverse chemical function from a few good reactions. Angew. Chem. Int. Ed. 2001, 40, 2004-2021.
Kinetic study of the reaction between TTS and H2S: TTS (10 μL, 10 mM in DMSO solution, final concentration=50 μM) and Na2S (20 μL, 500 mM in MilliQ H2O, final concentration=5 mM), reacted in PBS buffer (50 mM, pH=7.4) (2 mL) at room temperature. The kinetics were detected by UV-Vis absorbance spectrum (λ=380 nm) based on the decrease of TTS. This reaction can be seen as a pseudo-first order reaction; the second-order k constant (k) was calculated by: […]
The final k reported above was calculated by taking the average of the k values from 3 trials. • To determine [TTS] at each time point: […]

[2] = Monitoring H2S2 formation from the TTS-TAGDD hybrid compound 3 (SSP4, 12 h); conditions: 25 μM compound only, over 12 hours
Experimental: Monitoring H2S2 formation from the TTS-TAGDD hybrid compound 3: TTS and 3 were prepared as 1 mM solutions in DMSO. L-cysteine and Na2S2 were prepared at 4 mM and 1 mM in MilliQ H2O, respectively. SSP4 was dissolved in DMSO to obtain a 200 μM stock solution. CTAB was dissolved in ethanol to yield a 2 mM stock solution. 50 mM PBS buffer (pH 7.4) was added to individual wells of a black polystyrene, flat-bottomed clear 96-well plate, followed by TTS (25 μM) or 3 (25 μM) then cysteine (100 μM) or Na2S2 (25 μM). Samples were mixed by pipetting up and down and incubated in the dark at room temperature (rt) for 30 min. Next, CTAB (50 μM) was added to all wells followed by SSP4 (5 μM), and samples were mixed by pipetting up and down. Samples were then incubated in the dark at room temperature for another 30 min before being measured on a Molecular Devices SpectraMax iD3 Multi-Mode Microplate Reader (fluorescence mode; kinetics measurement type; emission 535 nm; excitation 485 nm; integration time […], low PMT sensitivity, attenuation 1, read height 1.00 mm; total run time: 12 hours; 25 cycles; interval: 0.5 hours). Data was graphed as a time dependent fluorescence response, with F0 as the SSP4 only condition. The fluorescence of Na2S2 over time was not represented in the line graph presented due to the compound's known instability. Data obtained from the 12 h time point including from Na2S2 was also represented in a bar graph for greater clarity. Results were expressed as mean±SEM (n=3).

[3] = Measurement of H2S2 formation from JK-1 with TTS (SSP4); conditions: TTS 200 μM + JK-1 400 μM, 30 min incubation, pH 7.4
Experimental: Measurement of H2S2 formation from JK-1 with TTS: JK-1 (1.1 mg) was added to a 1 dram vial and 4.484 mL of 50 mM PBS (pH 6.0) was then added to obtain a 1 mM stock solution with no headspace in the vial. The solution was vortexed to mix and then incubated in the dark at rt for 20 min. Based on the H2S-release profile reported under the same conditions (see Kang, J. et al., J. Am. Chem. Soc. 2016, 138, 6336), 400 μM of H2S (40% of 1 mM) should be released. The pH of the solution was then adjusted to 7.4 by adding 16 μL 2N NaOH. The same volume of 50 mM PBS (pH 6.0) buffer was added to an empty 1 dram vial and 16 μL of 2N NaOH was added to adjust the pH of the buffer similarly for the controls. After incubation, 500 μL of the pH-adjusted PBS was aliquoted to nine 1.5 mL Eppendorf tubes while the same volume of JK-1 solution was aliquoted into six 1.5 mL Eppendorf tubes. […] 200 μL of each tube was then added to separate wells on a 96-well black flat clear-bottomed plate before being measured on a Molecular Devices SpectraMax iD3 Multi-Mode Microplate Reader (emission 535 nm; excitation 485 nm; integration time […], low PMT sensitivity, attenuation 1, read height 3.00 mm).
JK-1 in buffer was mixed with TTS to generate H2S2. After a 30 min incubation, the formation of H2S2 was measured by SSP4.

## COC(=O)c1ccc(=S=O)sc1 [TTS, 2H-thiopyran-2-thione sulfine]
[1]
  second-order rate constant k2 of the reaction between TTS and H2S: 2.7
[2]
  SSP4 fluorescence: did not give any notable fluorescence
[3]
  SSP4 fluorescence (H2S2 formation): strong fluorescence
